{
  "source": "patent US9289495B2",
  "about": "“Systems and methods for treatment of allergies and other indications” (Strategic Science & Technologies, LLC, priority 2011, dated 2016)",
  "origin": "cited, not measured here",
  "data": [
    {"smiles": "CN(C)CCOC(C)(c1ccccc1)c1ccccn1", "note": "(stereo not shown) [doxylamine]", "values": [
      {"measurement": "pKa", "result": "8.7-9.2"}
    ]}
  ]
}
